Target: T1, Orai1 (STIM1/Orai1 channel, CRAC channel) (Homo sapiens, UniProt Q96D31)
T1 construct: with STIM1
Experiment: whole-cell patch clamp of STIM1/Orai1 currents in transfected HEK293T cells
Assay type: cell-based

T1 sequence (Q96D31 whole entry): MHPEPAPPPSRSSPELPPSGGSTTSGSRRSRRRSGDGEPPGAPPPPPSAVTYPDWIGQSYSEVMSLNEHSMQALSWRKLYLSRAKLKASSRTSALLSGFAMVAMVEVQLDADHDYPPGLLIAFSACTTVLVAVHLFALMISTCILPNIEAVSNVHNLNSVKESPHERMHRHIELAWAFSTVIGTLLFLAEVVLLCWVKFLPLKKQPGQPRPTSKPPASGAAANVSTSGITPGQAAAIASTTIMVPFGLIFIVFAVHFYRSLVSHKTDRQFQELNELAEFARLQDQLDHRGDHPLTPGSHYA
T1 sequence (Q13586 23-685 partner): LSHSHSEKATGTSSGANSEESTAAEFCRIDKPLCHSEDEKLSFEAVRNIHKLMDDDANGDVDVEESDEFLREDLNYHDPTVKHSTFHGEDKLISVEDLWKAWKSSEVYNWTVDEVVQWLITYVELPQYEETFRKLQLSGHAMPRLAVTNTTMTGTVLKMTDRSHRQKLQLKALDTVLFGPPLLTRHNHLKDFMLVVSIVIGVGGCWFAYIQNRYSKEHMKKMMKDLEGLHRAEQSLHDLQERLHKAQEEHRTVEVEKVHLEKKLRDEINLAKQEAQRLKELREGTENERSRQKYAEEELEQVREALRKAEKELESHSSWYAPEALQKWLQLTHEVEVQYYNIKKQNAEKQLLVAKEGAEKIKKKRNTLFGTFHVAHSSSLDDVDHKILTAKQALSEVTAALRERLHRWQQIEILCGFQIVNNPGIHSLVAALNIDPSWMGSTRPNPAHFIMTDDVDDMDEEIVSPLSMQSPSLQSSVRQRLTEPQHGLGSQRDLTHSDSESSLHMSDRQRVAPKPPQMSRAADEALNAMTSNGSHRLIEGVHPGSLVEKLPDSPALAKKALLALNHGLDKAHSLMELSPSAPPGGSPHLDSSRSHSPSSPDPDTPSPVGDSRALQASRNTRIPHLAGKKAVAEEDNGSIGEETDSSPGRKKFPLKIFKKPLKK

IC50: 17.1 ± 2.17 µM
Structure (SMILES): COc1cc(OC)c(CCC(=O)c2ccc(O)cc2)c(OC)c1 [LrB, Loureirin B]
